One block for each compound: values may come before it.
Key:
[1] = Modulation of GP6 in human platelets reduction in collagen-induced platelet aggregation preincubated for 20 mins followed by collagen stimulation
[2] = Modulation of GP6 in human platelets assessed as reduction in convulxin-induced platelet aggregation
[3] = Inhibition of GP6 in human whole blood assessed as protein-mediated platelet aggregation preincubated for 15 mins followed by collagen stimulation and measured for 10 mins by multiple electrode aggregometry
Platelet glycoprotein VI = target: T1, Platelet glycoprotein VI (Homo sapiens, UniProt Q9HCN6); assay: Inhibition of GP6 in human whole blood assessed as protein-mediated platelet aggregation preincubated for 15 mins followed by collagen stimulation and measured for 10 mins by multiple electrode aggregometry
T1 sequence (Q9HCN6 whole entry): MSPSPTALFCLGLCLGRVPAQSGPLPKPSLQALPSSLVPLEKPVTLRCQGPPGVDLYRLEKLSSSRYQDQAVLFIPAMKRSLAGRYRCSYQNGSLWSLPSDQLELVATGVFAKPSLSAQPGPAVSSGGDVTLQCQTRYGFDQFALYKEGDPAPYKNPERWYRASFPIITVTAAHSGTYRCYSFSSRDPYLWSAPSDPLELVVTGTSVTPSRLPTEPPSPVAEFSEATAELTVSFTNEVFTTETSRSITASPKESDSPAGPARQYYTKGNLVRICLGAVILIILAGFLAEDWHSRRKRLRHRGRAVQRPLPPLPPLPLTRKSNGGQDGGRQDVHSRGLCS

[4] = Antagonist activity at GP6 in human platelet assessed as reduction in CRP-induced platelet-aggregation preincubated for 10 mins followed by collagen stimulation by aggregometry
[5] = Antagonist activity at GP6 in human platelet assessed as reduction in collagen-induced platelet-aggregation preincubated for 10 mins followed by collagen stimulation by aggregometry

SMILES: Cc1cccc(Nc2nc(N[C@@H]3CCCC[C@@H]3N)ncc2C(N)=O)c1
IC50 [1]: 570 nM
IC50 [2]: 31 nM

SMILES: C=C1C(=O)[C@@]23[C@H](O)C[C@@H]4C(C)(C)C(=O)CC[C@@]4(C)[C@@H]2CC[C@@H]1[C@H]3O [Glaucocalyxin A]
IC50 [4]: 2 nM
IC50 [5]: 21 nM

SMILES: C=CC(=O)N1CCC[C@@H](n2nc(-c3ccc(Oc4ccccc4)cc3)c3c(N)ncnc32)C1 [IBRUTINIB]
IC50 [3]: 120 nM

The remaining lines, values ahead:

IC50 [3]: 510 nM
SMILES: C=CC(=O)N1CCC([C@@H]2CCNc3c(C(N)=O)c(-c4ccc(Oc5ccccc5)cc4)nn32)CC1 (single isomer, unassigned) [US9447106, 27b (peak 2)]

IC50 (Platelet glycoprotein VI): 1210 nM
SMILES: C/C=C/C(=O)N1CCC[C@H]1c1nc(-c2ccc(C(=O)Nc3ccccn3)cc2)c2c(N)nccn12 [ACP-196]

IC50 [3]: 1200 nM
SMILES: CC#CC(=O)N1CC[C@@H](n2c(=O)n(-c3ccc(Oc4ccccc4)cc3)c3c(N)ncnc32)C1 [US9199997, 9]

IC50 [3]: 5840 nM
SMILES: C=CC(=O)N1CCC(CNc2ncnc(N)c2-c2ccc(Oc3ccccc3)cc2)CC1 [US9580449, Example A39]

— BindingDB's records for doi:10.1021/acs.jmedchem.0c00262 (University of Leeds, 2020)
